In article PMC9959456, “Multiple-P450 Gene Co-Up-Regulation in the Development of Permethrin Resistance in the House Fly, Musca domestica” (International Journal of Molecular Sciences, 2023):

Legend:
CYP6A36 = target: T1, CYP6A36 (Musca domestica, UniProt Q06S82); test: HPLC substrate depletion, P450/CPR Sf9 microsomes; assay type: biochemical; settings: 20 µM cis/trans permethrin mixture, 0.2 µM P450, NADPH-regenerating system, 0.25 mM MgCl2, pH 7.4, 30 °C, 120 min
T1 construct: full length, co-expressed with house fly CPR (MOI 10:1) by baculovirus in Sf9 cells; microsomes; with NADPH--cytochrome P450 reductase
T1 sequence (Q06S82 1-507): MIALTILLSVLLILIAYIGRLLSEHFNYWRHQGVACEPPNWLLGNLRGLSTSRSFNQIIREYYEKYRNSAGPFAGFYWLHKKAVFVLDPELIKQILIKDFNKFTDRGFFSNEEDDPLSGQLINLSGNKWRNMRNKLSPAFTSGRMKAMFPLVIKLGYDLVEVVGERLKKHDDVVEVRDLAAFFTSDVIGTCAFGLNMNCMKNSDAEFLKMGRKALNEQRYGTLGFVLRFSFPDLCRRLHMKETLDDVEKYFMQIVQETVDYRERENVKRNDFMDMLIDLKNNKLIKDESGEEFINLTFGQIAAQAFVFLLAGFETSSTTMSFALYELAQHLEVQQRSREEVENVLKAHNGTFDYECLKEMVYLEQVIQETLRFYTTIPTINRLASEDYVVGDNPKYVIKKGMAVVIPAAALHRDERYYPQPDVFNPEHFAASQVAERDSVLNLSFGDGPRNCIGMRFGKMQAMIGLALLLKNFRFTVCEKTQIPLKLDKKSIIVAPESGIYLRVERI
T1 sequence (Q07994 1-671 partner): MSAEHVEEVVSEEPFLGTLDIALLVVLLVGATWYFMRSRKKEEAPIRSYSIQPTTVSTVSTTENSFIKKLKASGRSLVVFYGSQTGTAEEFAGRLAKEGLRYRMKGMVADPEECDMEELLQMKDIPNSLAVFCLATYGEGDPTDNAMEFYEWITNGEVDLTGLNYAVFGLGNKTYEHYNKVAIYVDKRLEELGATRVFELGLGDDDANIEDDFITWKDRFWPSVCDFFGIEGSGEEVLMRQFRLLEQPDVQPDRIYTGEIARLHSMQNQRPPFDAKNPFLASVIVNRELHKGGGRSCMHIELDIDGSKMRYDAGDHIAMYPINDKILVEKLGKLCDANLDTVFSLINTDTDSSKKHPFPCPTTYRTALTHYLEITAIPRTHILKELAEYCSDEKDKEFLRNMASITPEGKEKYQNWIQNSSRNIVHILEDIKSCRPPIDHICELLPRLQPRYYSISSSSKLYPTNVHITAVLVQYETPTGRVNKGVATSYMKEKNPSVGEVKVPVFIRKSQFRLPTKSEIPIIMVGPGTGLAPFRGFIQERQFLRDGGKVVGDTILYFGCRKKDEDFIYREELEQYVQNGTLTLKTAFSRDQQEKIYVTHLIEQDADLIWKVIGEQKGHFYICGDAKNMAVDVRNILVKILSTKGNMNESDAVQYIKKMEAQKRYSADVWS

CYP4S24 = target: T2, CYP4S24 (Musca domestica, UniProt T1PEC4); test: HPLC substrate depletion, P450/CPR Sf9 microsomes; assay type: biochemical; settings: 0.2 µM P450, NADPH-regenerating system, 0.25 mM MgCl2, pH 7.4, 30 °C, 120 min
T2 construct: full length, co-expressed with house fly CPR (MOI 10:1) by baculovirus in Sf9 cells; microsomes; with NADPH--cytochrome P450 reductase
T2 sequence (T1PEC4 1-496): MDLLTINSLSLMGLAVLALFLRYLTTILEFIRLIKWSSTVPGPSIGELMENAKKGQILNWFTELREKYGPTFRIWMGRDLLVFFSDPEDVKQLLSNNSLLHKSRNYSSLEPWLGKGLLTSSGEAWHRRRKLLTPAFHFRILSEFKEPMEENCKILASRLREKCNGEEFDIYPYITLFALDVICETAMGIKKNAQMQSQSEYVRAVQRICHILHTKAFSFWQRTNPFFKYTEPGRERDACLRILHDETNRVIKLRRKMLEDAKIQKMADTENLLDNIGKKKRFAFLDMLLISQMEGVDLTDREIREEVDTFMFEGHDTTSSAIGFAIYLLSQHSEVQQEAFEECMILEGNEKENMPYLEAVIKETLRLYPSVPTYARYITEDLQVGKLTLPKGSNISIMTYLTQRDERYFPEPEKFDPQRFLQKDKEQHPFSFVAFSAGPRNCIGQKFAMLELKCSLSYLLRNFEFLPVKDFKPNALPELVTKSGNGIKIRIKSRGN
T2 sequence (Q07994 1-671 partner): T1 sequence (Q07994 1-671 partner)

CC1(C)C(C=C(Cl)Cl)C1C(=O)OCc1cccc(Oc2ccccc2)c1 (stereo not drawn) [trans-permethrin]
HPLC substrate depletion, P450/CPR Sf9 microsomes (CYP6A36): CYP6A36 showed the highest activity toward both trans- and cis-permethrin

O=Cc1cccc(Oc2ccccc2)c1 [PBald]
HPLC substrate depletion, P450/CPR Sf9 microsomes (CYP4S24; 20 µM PBald): CYP4S24 exhibiting the highest ability to metabolize both PBalc and PBald

OCc1cccc(Oc2ccccc2)c1 [PBalc]
HPLC substrate depletion, P450/CPR Sf9 microsomes (CYP4S24; 20 µM PBalc): CYP4S24 exhibiting the highest ability to metabolize both PBalc and PBald
